The target of assay [1] is T1, Human IL-17A (Homo sapiens, UniProt Q16552).
T1 sequence (Q16552 20-155 limits assumed): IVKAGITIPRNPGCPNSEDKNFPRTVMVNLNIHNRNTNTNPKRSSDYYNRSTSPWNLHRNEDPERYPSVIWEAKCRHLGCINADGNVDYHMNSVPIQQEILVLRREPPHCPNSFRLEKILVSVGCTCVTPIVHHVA
Nature of the assay: IL-17A enzyme-linked immunosorbent assay (competitive ELISA, IL-17A/IL-17Ra receptor-ligand binding). Also on record: purchased Sino Biological Inc. 12047-H07B. The following applies: human IL-17A coated plate, human IL-17Ra, read-out: IC50, inhibitory activity of compounds on human IL-17A. On the procedure:
Experimental Example 1 IL-17A Enzyme-Linked Immunosorbent Assay (ELISA)
The inhibitory effects of human IL-17A inhibitors on receptor-ligand binding were quantitatively determined by a competitive enzyme-linked immunosorbent assay (ELISA). The ELISA was performed through the following steps.
Human IL-17A (Sino Biological Inc., Cat #12047-H07B) was diluted with coating buffer (50 mM phosphate-buffered saline (PBS), pH 7.4) to give an IL-17A concentration of 0.2 μg/ml. 100 μL of the resulting solution was added to each well of a 96-well plate, and the plate was incubated at 37° C. for 30 min. In a blank group, 100 100 μL of the coating buffer was added instead of the IL-17A solution.
The plate was washed four times with 10 mM phosphate-buffered saline containing 0.05% Tween-20 (PBST, pH 7.4). 200 μL of PBST was used per well for each wash. After the final wash, the plate was tapped dry on absorbent paper.
Fresh 5% (w/v) skim milk solution was prepared before the experiment. For example, 5 g of skim milk powder (Bio-Rad, 170-6404) was completely dissolved in 100 mL of 10 mM PBST. 200 μL of the 5% (w/v) skim milk solution was added to each well, and the plate was incubated on a shaker at 25° C. for 30 min.
(S4) Preparation of 100× to-be-Tested Compound Solutions
During step (S3), the to-be-tested compound solutions were prepared, respectively. Each powdered compound was dissolved in dimethyl sulfoxide (DMSO) to reach a storage concentration of 10 mM. The to-be-tested compound solutions were then serially diluted four-fold with DMSO to obtain nine storage concentrations ranging from […].
(S6) Pre-incubation of IL-17A with to-be-tested compound solutions
89 μL of PBST and 1 μL of each of the to-be-tested compound solutions were added to each well and mixed. The plate was pre-incubated at 25° C. for 10 min. In the blank group and the control group, 1 μL of DMSO was added instead of the to-be-tested compound solutions.
(S7) Incubation with Human Interleukin-17 Receptor a (IL-17Ra)
10 μL of 16 nM human IL-17Ra (Sino Biological Inc., Cat #10895-H03H) was added, followed by incubation on a shaker at 25° C. for 30 min. The receptor solution was prepared in 10 mM PBST.
(S9) Incubation with Horseradish Peroxidase-Conjugated Antibody
100 μL of mouse anti-Fc tag horseradish peroxidase (HRP)-conjugated antibody (Sino Biological Inc., Cat #10702-MM01T-H) was added to each well. The plate was incubated on a shaker at 25° C. for 30 min. The antibody was diluted with 5% (w/v) skim milk solution at 1:5,000 (v/v).
100 μL of 3,3′,5,5′-tetramethylbenzidine (TMB) substrate solution (BD, Cat #555214) was added to each well. Substrate A and substrate B were freshly mixed at a volume ratio of 1:1 before use. The plate was incubated in the dark at 25° C. for 5-15 min.
(S12) Termination and Detection
The color reaction was terminated by addition of 2.5 M hydrochloric acid (HCl). Absorbance was measured at 450 nm using a BMG PHERStar microplate reader.
(S13) Calculation of Half-Maximal Inhibitory Concentration (IC50)
The relative percent residual activity at each compound concentration was calculated according to Equation 1. The IC50 value of each test compound was then calculated in GraphPad 6 using the equation for log(inhibitor) versus normalized response with variable slope, as shown in Equation 2.
relative percent residual activity (%)=[(absorbance of sample−absorbance of blank group)/(absorbance of control group−absorbance of blank group)]%. Equation 1: […]
The compounds prepared in the above examples were tested for IL-17A inhibitory activity according to the above method.
For orientation: ELISA stands for enzyme-linked immunosorbent assay.

For assay [2], the target named is T1, Human IL-17A. The assay is described as follows: Inhibition of human IL-17A protein-induced GROα/CXCL1 production in HT-29 cells. Also on record: purchased R&D 317-ILB; host or cells: added exogenously to HT-29 cells. The following applies: 30 ng/mL human IL-17A protein, 48 h, GROα in supernatant by ELISA kit, read-out: Inhibitory IC50 of compounds on HT-29 cell GROα/CXCL1. The class given is cell-based. On the procedure: Experiment Example 3 Inhibition of Human IL-17A Protein-Induced GROα/CXCL1 Production in HT-29 Cells by Compounds
This assay was conducted to evaluate the ability of the compounds to inhibit human IL-17A protein-induced production of the chemokine growth-regulated oncogene alpha/C-X-C motif chemokine ligand 1 (GROα/CXCL1) in HT-29 cells.
Human colorectal adenocarcinoma epithelial HT-29 cells (Chengdu Zhongyuan Gongchuang Technology Co., Ltd.) were seeded into a 96-well plate at a density of 5×10^4 cells per well and were cultured overnight in an incubator at 37° C.
30 ng/mL of human IL-17A protein (R&D, #317-ILB) was mixed with gradient concentrations of the IL-17A small-molecule inhibitor, or with […] of a positive control IL-17A antibody (R&D, #AF-317-NA). These mixtures were incubated at 37° C. for 1 h and were then added to the plate. The mixtures were co-incubated with the HT-29 cells at 37° C. for 48 h. Thereafter, the level of GROα in the cell culture supernatant was determined using a GROα ELISA kit (Cisbio, #62HCXC1PEG).
The inhibitory activity of each compound was expressed as the half-maximal inhibitory concentration (IC50) for inhibition of GROα/CXCL1 production in HT-29 cells.

Consider `Cc1[nH]nc2c1-c1cc(F)c(NC(=O)[C@@H](NC(=O)c3ccnn3C(C)C)C(C3CC3)C3CC3)cc1CN(CC(F)F)C(C)C2` (mixture of isomers) [compound 178], for which the IC50 in assay [1] was no more than 50 nM; in assay [2], no more than 100 nM.

Turning to `CSCC(C)n1nccc1C(=O)N[C@H](C(=O)Nc1cc2c(cc1F)-c1c(n[nH]c1C)CCOC2)C(C1CC1)C1CC1` (single isomer, unassigned) [compound 40a], the IC50 in assay [1] is 50 to 150 nM; in assay [2] it was 100 to 500 nM.

As to `CSCC(C)n1nccc1C(=O)N[C@H](C(=O)Nc1cc2c(cc1F)-c1c(n[nH]c1C)CCOC2)C(C1CC1)C1CC1` (single isomer, unassigned) [compound 40b], the results for the IC50 in assay [1] and in assay [2] were no more than 50 nM and 100 to 500 nM, respectively.

`CCC1Cc2n[nH]c(C)c2-c2cc(F)c(NC(=O)[C@@H](NC(=O)c3ccnn3C(C)C)C(C3CC3)C3CC3)cc2CO1` (single isomer, unassigned) [compound 120a]: the IC50 in assay [1] was 50 to 150 nM; in assay [2] it was 100 to 500 nM.

Consider `CCC1Cc2n[nH]c(C)c2-c2cc(F)c(NC(=O)[C@@H](NC(=O)c3ccnn3C(C)C)C(C3CC3)C3CC3)cc2CO1` (single isomer, unassigned) [compound 120b], for which the values for the IC50 in assay [1] and in assay [2] were no more than 50 nM and 100 to 500 nM, respectively.

Take `CCC(C)n1nccc1C(=O)N[C@H](C(=O)Nc1cc2c(cc1F)-c1c(n[nH]c1C)CCOC2)C(C1CC1)C1CC1` (single isomer, unassigned) [compound 123a]: the IC50 is no more than 50 nM in assay [1] and 100 to 500 nM in assay [2].

In the case of `CCC(C)n1nccc1C(=O)N[C@H](C(=O)Nc1cc2c(cc1F)-c1c(n[nH]c1C)CCOC2)C(C1CC1)C1CC1` (single isomer, unassigned) [compound 123b], the IC50 in assay [1] is no more than 50 nM; in assay [2], 100 to 500 nM.

`Cc1[nH]nc2c1-c1cc(F)c(NC(=O)[C@@H](NC(=O)c3ccnn3C(C)C)C(C3CC3)C3CC3)cc1C(=O)NC(C)C2` (single isomer, unassigned) [compound 187a]: the IC50 in assay [2] was no more than 100 nM.

With `Cc1[nH]nc2c1-c1cc(F)c(NC(=O)[C@@H](NC(=O)c3ccnn3C(C)C)C(C3CC3)C3CC3)cc1C(=O)NC(C)C2` (single isomer, unassigned) [compound 187b], in assay [2], the IC50 was no more than 100 nM.

For `Cc1[nH]nc2c1-c1cnc(NC(=O)[C@@H](NC(=O)c3ccnn3C(C)C(F)F)C(C3CC3)C3CC3)cc1COCC2` (single isomer, unassigned) [compound 190a], the values for the IC50 in assay [1] and in assay [2] were no more than 50 nM and 100 to 500 nM, respectively.

Turning to `Cc1[nH]nc2c1-c1cnc(NC(=O)[C@@H](NC(=O)c3ccnn3C(C)C(F)F)C(C3CC3)C3CC3)cc1COCC2` (single isomer, unassigned) [compound 190b], the IC50 fell in the range of 50 to 150 nM in assay [1] and 100 to 500 nM in assay [2].

As to `Cc1[nH]nc2c1-c1cc(F)c(NC(=O)[C@@H](NC(=O)c3ccnn3C(C)C)[C@H]3CC[C@H](C)CC3)cc1COCC2` [compound 45], the IC50 was no more than 50 nM in assay [1] and 100 to 500 nM in assay [2].

On to `CCn1nccc1C(=O)N[C@H](C(=O)Nc1cc2c(cc1F)-c1c(n[nH]c1C)CCOC2)C1CCCCC1` [compound 49], for which the IC50 is no more than 50 nM in assay [1] and 100 to 500 nM in assay [2].

For the compound `CCn1nccc1C(=O)N[C@H](C(=O)Nc1cc2c(cn1)-c1c(n[nH]c1C)CCOC2)C(C1CC1)C1CC1` [compound 53], the IC50 is no more than 50 nM in assay [1] and 100 to 500 nM in assay [2].

For the compound `Cc1[nH]nc2c1-c1cc(F)c(NC(=O)[C@@H](NC(=O)c3ccnn3CC3CC(F)(F)C3)C(C3CC3)C3CC3)cc1COCC2` [compound 64], the IC50 in assay [1] is no more than 50 nM; in assay [2] it was 100 to 500 nM.

For `Cc1[nH]nc2c1-c1cc(F)c(NC(=O)[C@@H](NC(=O)c3ccnn3CC3(F)CC3)C(C3CC3)C3CC3)cc1COCC2` [compound 79], the IC50 in assay [1] was 50 to 150 nM; in assay [2], 100 to 500 nM.

Take `Cc1[nH]nc2c1-c1cc(F)c(NC(=O)[C@@H](NC(=O)c3ccnn3CCCN3CCOCC3)C(C3CC3)C3CC3)cc1COCC2` [compound 92]: the IC50 in assay [1] was no more than 50 nM; in assay [2], no more than 100 nM.

Take `Cc1[nH]nc2c1-c1cc(F)c(NC(=O)[C@@H](NC(=O)c3ccnn3C(C)C)C(C3CC3)C3CC3)cc1CCCC2` [compound 130]: the IC50 is no more than 50 nM in assay [1] and 100 to 500 nM in assay [2].

As for `CCN1CCc2n[nH]c(C)c2-c2cc(F)c(NC(=O)[C@@H](NC(=O)c3ccnn3CC)C(C3CC3)C3CC3)cc2C1` [compound 157], the IC50 was no more than 50 nM in assay [1] and 100 to 500 nM in assay [2].

On to `Cc1[nH]nc2c1-c1cc(F)c(NC(=O)[C@@H](NC(=O)c3conc3C(C)C)C(C3CC3)C3CC3)cc1CN(CC(F)F)C(=O)C2` [compound 171], for which the IC50 in assay [1] was no more than 50 nM; in assay [2], no more than 100 nM.

Take `Cc1[nH]nc2c1-c1cc(F)c(NC(=O)[C@@H](NC(=O)c3ccnn3CCCF)C(C3CC3)C3CC3)cc1CN(CC(F)F)C(=O)C2` [compound 172]: the figures for the IC50 in assay [1] and in assay [2] were no more than 50 nM and no more than 100 nM, respectively.

For `Cc1[nH]nc2c1-c1cc(F)c(NC(=O)[C@@H](NC(=O)c3ccnn3C(C)C)C(C3CC3)C3CC3)cc1CN(C1CCC(F)(F)CC1)CC2` [compound 175], the values for the IC50 in assay [1] and in assay [2] were no more than 50 nM and no more than 100 nM, respectively.

As to `Cc1[nH]nc2c1-c1cc(F)c(NC(=O)[C@@H](NC(=O)c3conc3C(C)C)C(C3CC3)C3CC3)cc1CN(CC(F)F)CC2` [compound 180], the IC50 in assay [1] was no more than 50 nM; in assay [2] it was no more than 100 nM.

Turning to `Cc1[nH]nc2c1-c1cc(F)c(NC(=O)[C@@H](NC(=O)c3ccnn3CCCF)C(C3CC3)C3CC3)cc1CN(CC(F)F)CC2` [compound 181], the IC50 in assay [1] was no more than 50 nM; in assay [2], no more than 100 nM.

For `Cc1c2c(nn1COCC[Si](C)(C)C)CC(=O)N(Cc1ccccc1)Cc1cc(N)c(F)cc1-2` [compound 183], in assay [2], the IC50 is 100 to 500 nM.

Consider `Cc1[nH]nc2c1-c1cnc(NC(=O)[C@@H](NC(=O)c3ccnn3C(C)C)C(C3CC3)C3CC3)cc1CN(C1CCC1)C(=O)C2` [compound 197], for which the IC50 in assay [1] is no more than 50 nM; in assay [2], no more than 100 nM.

For the origin of these results see patent US20260258050A1, “IMMUNOMODULATOR” (HITGEN INC., priority 2023, published 2026).
